Source: EPA's ToxValDB 9.5 (doi:10.2903/j.efsa.2016.4421)

What was measured:
Aphidius rhopalosiphi = experiment: LR50; higher = less toxic; conditions: not reported, mortality
Anas platyrhynchos = conditions: acute; oral; unspecified; mortality
Daphnia magna = conditions: chronic/long-term; duration: 21 days; growth
Folsomia candida = conditions: chronic/long-term; reproduction
Apis mellifera = conditions: acute, mortality
Lepomis macrochirus = conditions: acute; duration: 96 hours; mortality
Hypoaspis aculeifer = conditions: chronic/long-term; reproduction
Oncorhynchus mykiss = conditions: acute; duration: 96 hours; mortality
Oryctolagus sp. = conditions: reproduction developmental

With `COc1cc(OC)nc(NC(=O)NS(=O)(=O)c2cc(NC=O)ccc2C(=O)N(C)C)n1` [Foramsulfuron] the LR50 (Aphidius rhopalosiphi; duration: 7 days) was greater than 60 g/ha, the LR50 (Aphidius rhopalosiphi) was greater than 5.6 g/ha and the LD50 (Anas platyrhynchos) was greater than 2000 mg/kg. For the same compound, the LD50 (Rattus norvegicus; acute, oral, mortality) was greater than 5000 mg/kg, the NOEL (Rattus norvegicus; reproduction developmental, F, reproduction) was 1430 mg/kg-day and the NOAEL (Rattus norvegicus; reproduction developmental, duration: 2 years, reproduction) was 25 mg/kg-day. It also gave an NOEC (Daphnia magna) of 100 mg/L, an NOEC (Folsomia candida) of 100 mg/kg and an LD50 (Apis mellifera; dermal) greater than 4.66 µg/piece. It also gave an LD50 (Apis mellifera; duration: 48 hours, oral, unspecified) greater than 5 µg/piece, an LC50 (Lepomis macrochirus) greater than 100 µg/mL and an NOEC (Hypoaspis aculeifer) of 1000 mg/kg. It also gave an LD50 (Colinus virginianus; acute, oral, mortality) greater than 2000 mg/kg, an NOEL (Colinus virginianus; reproduction developmental) of 104 mg/kg-day and an LC50 (Oncorhynchus mykiss) greater than 100 µg/mL. The NOAEL (Oryctolagus sp.; body weight) was 50 mg/kg-day and the NOEL (Oryctolagus sp.; no effects) was 500 mg/kg-day.
